Measured values reported in PMC6987146, “Potent inhibition of HIV replication in primary human cells by novel synthetic polyketides inspired by Aureothin” (Scientific Reports, 2020).

Tests used:
HIV integrase = molecular target: T1, HIV integrase (Human immunodeficiency virus type 1 group M subtype B, UniProt P04585); assay: HIV Integrase Activity Assay (HIV-1 Integrase Assay Kit); format: biochemical; conditions: 10 µM
T1 construct: purchased XpressBio
Experimental: HIV Integrase Activity Assay. To evaluate the inhibitory effect of test compounds to counteract HIV integrase activity, the HIV-1 Integrase Assay Kit (XpressBio) was conducted according to manufacturer’s recommendations. Dolutegravir was used as reference inhibitor.

HIV-1MMVP899-87 = assay: Inhibition of clinical isolate HIV-1M MVP899-87 in PBMCs; format: cell-based; conditions: PBMC
Description: Clinical isolates represented the following HIV genotypes: HIV-1MMVP899-87: HIV-type 1, Major group; HIV-1OMVP5180-91: HIV-type 1, Outlier group; HIV-2MVP10668-93: HIV-type 2; HIV-1V13-03413B: HIV-type 1, Major group/B-clade, isolate with multiple drug-resistance mutations. Depicted are the means of three independent experiments with biological triplicates (n = 3; m = 3) and standard deviations (SD).
Isolation of primary clinical HIV-isolates HIV-1MMVP899-87, HIV-1OMVP5180-91, HIV-1V13-03413B and HIV-2MVP10668-93 is described in[43]. The HIV-1 M group/B-clade isolate (HIV-1V13-03413B) was isolated from a patient with virological treatment failure. Clinical isolates were produced from HIV infected H9 cells as described.
To evaluate anti-HIV efficacies of test compounds in primary human target cells, stimulated PBMCs were seeded in 96-well plates at a density of 500,000 cells per well, different #7concentrations of the compound (serial dilutions) and virus inoculum (MOI of 0.5) added to the PBMCs and cultures incubated for 48 h. Infectious virus production was quantified by transferring 35 µl of supernatant from the PBMC cultures to LC5-RIC cells, seeded in black 96-well plates one day earlier. LC5-RIC cultures were then incubated for 72 h and analysed for DsRed1 reporter expression and anti-HIV activity calculated as described for the EASY-HIT assay.

[1] = molecular target: T2, recombinant HIV-1 reverse transcriptase (Human immunodeficiency virus type 1 group M subtype B, UniProt P04585); assay: HIV Reverse Transcriptase Activity Assay (colorimetric kit); format: biochemical; conditions: 10 µM
T2 construct: using 4 ng recombinant HIV-1 reverse transcriptase; purchased Roche
Experimental: HIV Reverse Transcriptase Activity Assay. To determine the inhibitory effect of test compounds against HIV reverse transcriptase activity, the colorimetric Reverse Transcriptase Assay Kit (Roche) was performed according to manufacturer’s protocol using 4 ng recombinant HIV-1 reverse transcriptase. Efavirenz was used as reference compound.

In the case of `COc1oc(C2C/C(=C/C(C)=C/c3ccc(C(F)(F)F)cc3)CO2)c(C)c(=O)c1C` (stereo not shown) [compound #7], the “inhibitory effect on Integrase activity” value (HIV integrase) is reported as “no inhibitory effects”, the IC50 (HIV-1MMVP899-87; read-out: IC50 value, HIV-1M MVP899-87, HIV-type 1, Major group) is reported as 4.11 nM and the IC90 (HIV-1MMVP899-87; read-out: IC90 value, HIV-1M MVP899-87, HIV-type 1, Major group) is reported as 12.3 nM. The “inhibitory effect on Reverse transcriptase activity” value [1] was “no inhibitory effects”.
